Assay results reported in US12492194B2, “HPK1 inhibitors” (Janssen Pharmaceutica NV, priority 2019, dated 2025).

Experiments:
[1] = molecular target: Hpk1 (Homo sapiens, UniProt Q92918); assay: SLP76 phosphorylation assay (SLP76 pS376 in lysates of HEK293 cells engineered to express Hpk1 and SLP76); assay type: cell-based; settings: HEK293 cells expressing Hpk1 and SLP76, 4 hours incubation; read-out: pSLP76 (HEK293) (pIC50) (converted)
Method: SLP76 Phosphorylation Assay
Hpk1 inhibition in cells was determined by detection of SLP76 phosphorylation at S376 in lysates from HEK293 cells engineered to express Hpk1 and SLP76. Serial dilutions of test compounds were prepared in cell culture medium and 20 μl was transferred into each well of a 96-well plate containing HEK293 cells in 180 μl of culture medium. After incubation for 4 hours at 37° C./5% CO2, the culture medium was removed, plates were put on ice and cells washed with cold Minimal Essential Medium before lysing in 90 μl of cold Mammalian Protein Extraction Reagent (Thermo Scientific, 78501) for 30 minutes on ice. The cell lysates were transferred to another 96-well plate, centrifuged 10 minutes at 3000 rcf (4° C.) and 30 μl transferred to a 96-well High-bind plate (MSD, L15XB-3). After coating overnight at 4° C., the cell lysate was removed, wells were washed with base buffer (TBS, 0.2% Tween-20), and blocking solution (base buffer containing 3% MSD blocker A) was added to each well for 1 hour at room temperature. The blocking solution was removed, the wells were washed with base buffer, and detection antibody (SLP76 pS376) was added in 25 μl base buffer containing 1% MSD blocker A to each well. After a 2 h incubation at room temperature, the detection antibody was removed, wells were washed four times with base buffer, 25 μl SULFO-TAG labeled goat anti-rabbit secondary antibody (MSD, R32AB-1) in base buffer containing 1% MSD blocker A was added to each well and left for 1 hour at room temperature. Wells were washed 4 times with base buffer, 150 μl Read Buffer T was added to each well, and the plates were read in a Mesoscale plate reader (MSD). IC50 values were determined by curve-fitting the electrochemiluminescent signals obtained from the lysates of HEK293 cells expressing Hpk1 and SLP76 treated with test compounds at various concentrations minus the signal obtained from HEK293 cells expressing SLP76 only.

[2] = molecular target: T1, full-length human Hpk1 (Homo sapiens, UniProt Q92918); assay: HPK1 kinase assay (ADP Glo Kinase Assay); assay type: biochemical; settings: full-length human GST-Hpk1, ADP Glo, 75 μM ATP; read-out: Hpk1 biochemical (pIC50) (converted)
T1 construct: A recombinant fusion protein consisting of full-length human Hpk1; GST (N)
Method: Pharmacological Part HPK1 Kinase Assay
A recombinant fusion protein consisting of full-length human Hpk1 with an N-terminal Glutatione S-transferase (GST) tag was produced in a baculovirus/insect cell expression system. GST-Hpk1 protein was purified from cell lysates by glutathione sepharose affinity chromatography. Kinase inhibition was determined using the ADP Glo™ Kinase Assay kit (Promega, V9101). Test compounds were prepared by serial dilution in dimethyl sulfoxide (DMSO) and 0.1 μl of each dilution was spotted onto a 384-well white Proxiplate (Perkin Elmer, 6008289). 8 μl of kinase assay buffer (40 mM Tris pH 7.5, 2 mM dithiothreitol (DTT), 0.05% Bovine Serum Albumin, 5 mM MgCl2) containing Hpk1 protein was transferred to each well and incubated for 30-45 minutes at room temperature. The enzymatic reaction was started by adding 2 μl of kinase assay buffer containing 75 μM ATP. After 120 minutes, the reaction was stopped by adding 3 μl of ADP Glo™ reagent (Promega, V9101) and incubating 45 minutes at room temperature.

Chain of Hpk1 (Q92918 whole entry): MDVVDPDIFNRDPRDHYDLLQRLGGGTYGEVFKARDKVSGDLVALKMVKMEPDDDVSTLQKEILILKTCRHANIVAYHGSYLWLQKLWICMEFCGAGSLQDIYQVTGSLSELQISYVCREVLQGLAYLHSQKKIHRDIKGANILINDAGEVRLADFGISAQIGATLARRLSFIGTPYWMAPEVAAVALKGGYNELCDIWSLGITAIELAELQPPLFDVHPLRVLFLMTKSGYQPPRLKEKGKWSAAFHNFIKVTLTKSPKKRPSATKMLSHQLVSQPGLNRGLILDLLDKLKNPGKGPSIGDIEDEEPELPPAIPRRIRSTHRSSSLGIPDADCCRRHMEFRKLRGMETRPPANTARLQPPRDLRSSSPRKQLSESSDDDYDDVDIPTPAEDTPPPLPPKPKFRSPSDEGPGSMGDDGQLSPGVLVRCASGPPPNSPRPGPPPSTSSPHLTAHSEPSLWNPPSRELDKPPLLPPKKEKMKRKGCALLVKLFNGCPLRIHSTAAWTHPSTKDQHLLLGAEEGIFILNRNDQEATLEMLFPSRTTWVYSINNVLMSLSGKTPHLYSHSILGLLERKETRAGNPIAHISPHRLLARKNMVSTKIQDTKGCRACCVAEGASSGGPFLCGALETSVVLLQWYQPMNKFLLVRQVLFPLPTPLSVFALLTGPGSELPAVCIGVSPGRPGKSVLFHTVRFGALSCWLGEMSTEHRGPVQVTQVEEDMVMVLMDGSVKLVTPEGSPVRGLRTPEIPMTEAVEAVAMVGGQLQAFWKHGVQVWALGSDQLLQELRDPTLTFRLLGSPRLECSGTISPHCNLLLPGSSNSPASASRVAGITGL
T1 sequence (Q92918 whole entry, the tested form may be a part): as the sequence (Q92918 whole entry) above

SMILES: Nc1ncc(-c2ccc(C3CCOCC3)c([C@@H]3CCCN3)c2)cc1-c1ccnc(F)c1Cl [Co. 35]
- IC50 [1]: 676 nM
- IC50 [2]: 8.13 nM

SMILES: N#Cc1ccc(-c2cc(-c3ccc(C4CCOCC4)c([C@@H]4CCCN4)c3)cnc2N)cc1 [Co. 36]
- IC50 [1]: 692 nM
- IC50 [2]: 7.94 nM

SMILES: Nc1ncc(-c2ccc(C3CCOCC3)c([C@@H]3CCCN3)c2)cc1Br [Co. 37]
- IC50 [1]: 646 nM
- IC50 [2]: 7.24 nM

SMILES: Nc1ncc(-c2ccc(C3CCCCC3)c([C@@H]3CCCN3)c2)cc1-c1ccnc(F)c1 [Co. 38]
- IC50 [1]: 1290 nM
- IC50 [2]: 7.59 nM

SMILES: Cc1cc(-c2cc(-c3ccc(C4CCOCC4)c([C@@H]4CCCN4)c3)cnc2N)on1 [Co. 39]
- IC50 [1]: 275 nM
- IC50 [2]: 2.34 nM

SMILES: CC1(C)COc2ncc(-c3cc(-c4ccc(C5CCOCC5)c([C@@H]5CCCN5)c4)cnc3N)cc21 [Co. 40]
- IC50 [1]: 1100 nM
- IC50 [2]: 8.91 nM

SMILES: Cn1cc(-c2nc(-c3ccc(C4CCOCC4)c([C@@H]4CCCN4)c3)cnc2N)cn1 [Co. 41]
- IC50 [1]: 617 nM
- IC50 [2]: 4.57 nM

SMILES: Nc1ncc(-c2ccc(C3CCOCC3)c([C@@H]3CCCN3)c2)nc1-c1ccncc1 [Co. 42]
- IC50 [1]: 2000 nM
- IC50 [2]: 24.5 nM

SMILES: Nc1ncc(-c2ccc(C3CCOCC3)c([C@@H]3CCCN3)c2)nc1-c1ccnc(F)c1 [Co. 43]
- IC50 [1]: > 10000 nM
- IC50 [2]: 21.4 nM

SMILES: N#Cc1cc(-c2ccc(C3CCOCC3)c([C@@H]3CCCN3)c2)cnc1N [Co. 44]
- IC50 [1]: 339 nM
- IC50 [2]: 9.33 nM

SMILES: Nc1ncc(-c2ccc(C3=CCOC3)c([C@@H]3CCCN3)c2)cc1-c1ccnc(F)c1 [Co. 45]
- IC50 [1]: 1120 nM
- IC50 [2]: 41.7 nM

SMILES: CS(=O)(=O)N1CC=C(c2ccc(-c3cnc(N)c(-c4ccnc(F)c4)c3)cc2[C@@H]2CCCN2)CC1 [Co. 46]
- IC50 [1]: 1020 nM
- IC50 [2]: 35.5 nM

SMILES: CC(=O)N1CC=C(c2ccc(-c3cnc(N)c(-c4ccnc(F)c4)c3)cc2[C@@H]2CCCN2)CC1 [Co. 47]
- IC50 [1]: 1350 nM
- IC50 [2]: 24.5 nM

SMILES: Nc1ncc(-c2ccc(C3=CCSCC3)c([C@@H]3CCCN3)c2)cc1-c1ccnc(F)c1 [Co. 48]
- IC50 [1]: 1320 nM
- IC50 [2]: 25.1 nM

SMILES: Nc1ncc(-c2ccc(C3=CCS(=O)(=O)CC3)c([C@@H]3CCCN3)c2)cc1-c1ccnc(F)c1 [Co. 49]
- IC50 [1]: 2510 nM
- IC50 [2]: 24 nM

SMILES: Nc1ncc(-c2ccc(C3CCC(F)(F)CC3)c([C@@H]3CCCN3)c2)cc1-c1ccnc(F)c1 [Co. 50]
- IC50 [1]: 2450 nM
- IC50 [2]: 20 nM

SMILES: CO[C@H]1CC[C@@H](c2ccc(-c3cnc(N)c(-c4ccnc(F)c4)c3)cc2[C@@H]2CCCN2)CC1 [Co. 51]
- IC50 [1]: 550 nM
- IC50 [2]: 18.2 nM

SMILES: Nc1ncc(-c2ccc(C3CC4(COC4)C3)c([C@@H]3CCCN3)c2)cc1-c1ccnc(F)c1 [Co. 52]
- IC50 [1]: 851 nM
- IC50 [2]: 38.9 nM

SMILES: Nc1ncc(-c2ccc(C3CCOCC3)c([C@@H]3CCCN3)c2)nc1C(F)(F)F [Co. 53]
- IC50 [1]: 977 nM
- IC50 [2]: 15.8 nM

SMILES: Nc1ncc(-c2ccc(C3COC3)c([C@@H]3CCCN3)c2)cc1-c1ccnc(F)c1 [Co. 54]
- IC50 [1]: > 10000 nM
- IC50 [2]: 457 nM

SMILES: Nc1ncc(-c2ccc(C3CCOCC3)c([C@@H]3CCCN3)c2)cc1C1=CCS(=O)(=O)CC1 [Co. 55]
- IC50 [1]: > 10000 nM
- IC50 [2]: 95.5 nM

SMILES: Nc1ncc(-c2ccc(C3CCOCC3)c([C@@H]3CCCN3)c2)cc1-c1cc[nH]c(=O)c1 [Co. 57]
- IC50 [1]: > 10000 nM
- IC50 [2]: 26.3 nM

SMILES: N#Cc1ccc(-c2cnc(N)c(-c3ccnc(F)c3)c2)cc1[C@@H]1CCCN1 [Co. 60]
- IC50 [1]: > 10000 nM
- IC50 [2]: 251 nM

SMILES: N#Cc1cc(-c2cc(-c3ccc(C4CCOCC4)c([C@@H]4CCCN4)c3)cnc2N)ccn1 [Co. 61]
- IC50 [1]: 3980 nM
- IC50 [2]: 34.7 nM

SMILES: Nc1ncc(-c2ccc(C3CCOCC3)c([C@@H]3CCCN3)c2)cc1-c1ccc(F)cc1 [Co. 62]
- IC50 [1]: 1070 nM
- IC50 [2]: 31.6 nM

SMILES: Nc1ncc(-c2ccc(C3CCOCC3)c([C@@H]3CCCN3)c2)cc1-c1ccnc(C(F)(F)F)c1 [Co. 63]
- IC50 [1]: 5370 nM
- IC50 [2]: 58.9 nM

SMILES: [2H]c1cc(-c2cc(-c3ccc(C4CCOCC4)c([C@@H]4CCCN4)c3)cnc2N)ccn1 [Co. 64]
- IC50 [1]: 380 nM
- IC50 [2]: 17 nM

SMILES: [2H]c1cc(-c2cc(-c3ccc(C4CCOCC4)c([C@@H]4CCCN4)c3)cnc2N)cc([2H])n1 [Co. 65]
- IC50 [1]: 1200 nM
- IC50 [2]: 26.9 nM

SMILES: Nc1ncc(-c2ccc(C3CCOCC3)c(C3CCCN3)c2)cc1-c1cc[n+]([O-])cc1 (stereo not shown) [Co. 66]
- IC50 [1]: > 10000 nM
- IC50 [2]: 85.1 nM

SMILES: CN(C)Cc1cc(-c2cnc(N)c(-c3ccnc(N4CCNCC4)c3)c2)ccc1C1CCOCC1 [Co. 67]
- IC50 [1]: 1660 nM
- IC50 [2]: 46.8 nM

SMILES: Cn1cc(-c2cc(-c3ccc(C4CCOCC4)c([C@@H]4CCCN4)c3)cnc2N)cn1 [Co. 68]
- IC50 [1]: 1410 nM
- IC50 [2]: 6.31 nM

SMILES: Cc1cc(-c2cc(-c3ccc(C4CCOCC4)c(CN(C)C)c3)cnc2N)ccn1 [Co. 70]
- IC50 [1]: 4370 nM
- IC50 [2]: 115 nM

SMILES: COc1cc(-c2cc(-c3ccc(C4CCOCC4)c(CN(C)C)c3)cnc2N)ccn1 [Co. 71]
- IC50 [1]: 2040 nM
- IC50 [2]: 41.7 nM

SMILES: CN(C)Cc1cc(-c2cnc(N)c(-c3ccncc3F)c2)ccc1C1CCOCC1 [Co. 72]
- IC50 [1]: 2290 nM
- IC50 [2]: 40.7 nM

SMILES: CN(C)Cc1cc(-c2cnc(N)c(-c3ccncc3)c2)ccc1C1CCOCC1 [Co. 73]
- IC50 [1]: 1550 nM
- IC50 [2]: 42.7 nM

SMILES: CN(C)Cc1cc(-c2cnc(N)c(-c3ccnc(NCCO)c3)c2)ccc1C1CCOCC1 [Co. 74]
- IC50 [1]: 1860 nM
- IC50 [2]: 56.2 nM

SMILES: CN(C)Cc1cc(-c2cnc(N)c(-c3ccnc(NCCCO)c3)c2)ccc1C1CCOCC1 [Co. 75]
- IC50 [1]: 2290 nM
- IC50 [2]: 41.7 nM

SMILES: CN(C)Cc1cc(-c2cnc(N)c(-c3ccccc3)c2)ccc1C1CCOCC1 [Co. 76]
- IC50 [1]: 1950 nM
- IC50 [2]: 34.7 nM

SMILES: CN(C)Cc1cc(-c2cnc(N)c(-c3ccncn3)c2)ccc1C1CCOCC1 [Co. 77]
- IC50 [1]: 2570 nM
- IC50 [2]: 14.1 nM

SMILES: Nc1ncc(-c2ccc(C3CCOCC3)c([C@@H]3COCCN3)c2)cc1Br [Co. 78]
- IC50 [1]: 912 nM
- IC50 [2]: 8.13 nM

SMILES: C[C@H]1CN[C@H](c2cc(-c3cnc(N)c(Br)c3)ccc2C2CCOCC2)CO1 [Co. 79]
- IC50 [1]: 794 nM
- IC50 [2]: 25.7 nM

SMILES: Nc1ncc(-c2ccc(C3CCOCC3)c([C@@H]3COCCN3)c2)cc1-c1ccncc1 [Co. 80a]
- IC50 [1]: 851 nM
- IC50 [2]: 14.5 nM

SMILES: Nc1ncc(-c2ccc(C3CCOCC3)c([C@H]3COCCN3)c2)cc1-c1ccncc1 [Co. 80b]
- IC50 [1]: > 10000 nM
- IC50 [2]: 3720 nM

SMILES: Cn1cc(-c2cc(-c3ccc(C4CCOCC4)c([C@@H]4COCCN4)c3)cnc2N)cn1 [Co. 81]
- IC50 [1]: 813 nM
- IC50 [2]: 15.5 nM

SMILES: Nc1ncc(-c2ccc(C3CCOCC3)c([C@@H]3COCCN3)c2)cc1-c1ccnc(F)c1 [Co. 82]
- IC50 [1]: 126 nM
- IC50 [2]: 8.71 nM

SMILES: Cn1cc(-c2nc(-c3ccc(C4CCOCC4)c([C@@H]4COCCN4)c3)cnc2N)cn1 [Co. 84]
- IC50 [1]: 479 nM
- IC50 [2]: 25.1 nM

SMILES: Nc1ncc(-c2ccc(C3CCOCC3)c([C@@H]3COCCN3)c2)cc1Cl [Co. 85]
- IC50 [1]: 1150 nM
- IC50 [2]: 38 nM

SMILES: Cc1cc(-c2ccc(C3CCOCC3)c([C@@H]3COCCN3)c2)cnc1N [Co. 86]
- IC50 [1]: 3980 nM
- IC50 [2]: 120 nM

SMILES: COc1cc(-c2ccc(C3CCOCC3)c([C@@H]3COCCN3)c2)cnc1N [Co. 87]
- IC50 [1]: 1100 nM
- IC50 [2]: 47.9 nM

SMILES: Nc1ncc(-c2ccc(C3CCOCC3)c([C@@H]3COCCN3)c2)cc1F [Co. 88]
- IC50 [1]: 4170 nM
- IC50 [2]: 112 nM
